From article PMC8497791 (Frontiers in Pharmacology, 2021)

Key:
[1] = parameters: method as in Mok et al., 2017; settings: metabolite of osimertinib; ref Mok et al., 2017; cited from earlier work
BCRP = molecular target: T1, BCRP (Homo sapiens, UniProt Q9UNQ0); assay: Bidirectional transport across BCRP-MDCK monolayers; assay type: in vitro ADME; settings: for BCRP transporter substrate assessment: criterion ER >2, BCRP-MDCK vs MDCK
T1 construct: expressed in transfected cells; host or cells: MDCK (canine kidney) cells transduced with lentivirus from pLVX-CMV-BCRP
T1 sequence (Q9UNQ0 1-655): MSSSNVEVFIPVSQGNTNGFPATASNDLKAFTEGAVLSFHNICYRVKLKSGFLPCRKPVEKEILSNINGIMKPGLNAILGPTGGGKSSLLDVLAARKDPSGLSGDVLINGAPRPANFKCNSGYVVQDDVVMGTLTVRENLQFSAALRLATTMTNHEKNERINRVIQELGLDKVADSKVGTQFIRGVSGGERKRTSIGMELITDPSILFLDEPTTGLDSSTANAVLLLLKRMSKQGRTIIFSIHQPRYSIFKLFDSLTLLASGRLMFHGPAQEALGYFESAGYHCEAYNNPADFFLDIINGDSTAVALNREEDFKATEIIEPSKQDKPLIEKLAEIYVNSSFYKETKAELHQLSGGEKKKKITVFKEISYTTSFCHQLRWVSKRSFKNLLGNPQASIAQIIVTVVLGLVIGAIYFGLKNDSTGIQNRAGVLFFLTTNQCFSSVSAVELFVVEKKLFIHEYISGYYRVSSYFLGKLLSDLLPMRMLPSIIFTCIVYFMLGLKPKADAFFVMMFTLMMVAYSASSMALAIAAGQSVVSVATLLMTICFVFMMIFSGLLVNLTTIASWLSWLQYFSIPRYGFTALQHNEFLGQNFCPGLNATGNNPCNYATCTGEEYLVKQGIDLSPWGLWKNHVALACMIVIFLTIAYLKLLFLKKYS
Description: (§1) To establish an MDCK transgenic cell line that can stably express human ABCB1 and BCRP and to identify whether it is suitable for drug delivery experiments, lentivirus shuttle plasmids pLVX-CMV-ABCB1 and pLVX-CMV-BCRP and their auxiliary packaging plasmids PSPAX2 and PMD2G, were extracted with high purity and free of endotoxin, respectively. 293T cells were transfected with Lipofectamine™ 3000 transfection reagent, and the medium was changed 6 h after transfection. After culturing for 24 and 48 h, the cell supernatants, rich in lentivirus particles, were collected and concentrated by ultracentrifugation. Before lentivirus transfection for 18–24 h, adherent MDCK cells were spread on 24-well plates at a density of 1 × 10^5/well. The number of cells transfected with lentivirus was approximately 2 × 10^5/well. The next day, the original medium was replaced with 2 ml of fresh medium containing 6 μg/ml polybrene, and then an appropriate amount of virus suspension; the plates were incubated at 37°C. After 4 h, 2 ml of fresh medium was added to dilute polybrene. The cells were cultured for another 24 h, and the medium containing virus was replaced with fresh medium. After 3–4 days of transfection, puromycin was added to screen the cell lines stably expressing ABCB1 and BCRP.
(§2) MDCK, ABCB1-MDCK, and BCRP-MDCK cells were inoculated in Tmur75 culture bottles with high-glucose DMEM. The cells were counted using a cell counter, the cell density was adjusted to 2.0 × 10^5 cells/ml, and the cells were inoculated in 12-well transwell plates [1.13 cm^2 insert area, 0.4 µm pore size (Corning Life Sciences, New York, NY, United States)]. Thereafter, 0.5 ml of cell suspension was added to the villous surface of each hole (AP side) and 1.5 ml of blank culture medium was added to the basal surface (BL side). After 24 h of culture in the incubator, the fresh culture medium was changed on both AP and BL sides, and the medium was changed every day for 3–5 days. In this experiment, transmembrane resistance was used to evaluate the compactness and integrity of the cell model. When the transmembrane resistance (TEER) is greater than 300 Ω cm^2, the cell monolayer is considered dense and intact. The higher the TEER value, the tighter the monolayer connection. The TEER of monolayer cells was calculated using the following formula: TEER = (R - Rb) × A; where, R is the resistance of the well inoculated with cells, Rb is the blank well without cell inoculation, and A is the membrane area of the polycarbonate membrane.
(§3) Before the transport experiment, the cell monolayer was washed with blank HBSS solution at 37°C three times, and then placed in a CO2 incubator and balanced with HBSS solution for 30 min at 37°C. The transport of the AP→BL side: 0.5 ml of the test solution was added to the AP side as the supply pool, whereas 1.5 ml of blank HBSS solution was added to the BL side as the receiving pool. Before sampling, 0.1 ml of the sample was collected from the BL side in the centrifuge tube, and after sampling, 0.1 ml of blank HBSS, transport sample, was added to the BL side to precipitate protein with methanol, and used for liquid chromatography-tandem mass spectrometry (LC-MS) detection. The transport of the BL→AP side: 1.5 ml of the test solution was added to the BL side as the supply pool, whereas 0.5 ml of blank HBSS solution was added to the AP side as the receiving pool. First, 0.1 ml of the sample was collected on the AP side in the centrifuge tube, and then 0.1 ml of HBSS was added to the AP side after sampling. A transport sample was added to the AP side to precipitate the protein with methanol and used for LC-MS detection.
(§4) The protein was precipitated with methanol in 0.1 ml of blank HBSS, transport sample, and used for LC-MS detection. Drug absorption was determined by LC-MS/MS.

ABCB1 = molecular target: T2, ABCB1 (Homo sapiens, UniProt P08183); assay: Bidirectional transport across ABCB1-MDCK monolayers; assay type: in vitro ADME; settings: for ABCB1 transporter substrate assessment: criterion ER >2, ABCB1-MDCK vs MDCK
T2 construct: expressed in transfected cells; host or cells: MDCK (canine kidney) cells transduced with lentivirus from pLVX-CMV-ABCB1
Description: as §1, §2, §3, §4

[2] = mouse, in vivo, po, 25 mg/kg
Description: (§5) The blood and brain tissues of mice with brain metastases were sampled at 0.5, 1, 2, 4, 8, and 24 h post dosing.
(§6) Chromatographic column:Thermo Hypersil C18 100 × 2.1 mm, 3 μm; Flow rate: 0.4 ml/min; Water phase: 0.1% formic acid aqueous solution; Organic phase: 0.1% formic acid/acetonitrile; Needle wash: methanol; Column oven temperature: 40°C; Autosampler temperature: 10.0°C; Automatic sampling Injection volume of the detector: 5.00 µl.
(§7) Dilute the 2.00 mg/ml stock solution to obtain standard curve solutions with concentrations of 500, 200, 50, 2, 1, and 0.5 ng/ml.
(§8) Dissolve the serum sample at room temperature, take 50 μl, add 150 μl methanol, vortex for 5 min, place in a centrifuge at 15,000 rpm for 10 min, take the supernatant for analysis. Weigh the tissue sample, add 2 ml of methanol, grind for 5 min, vortex and mix for 5 min, place it in a centrifuge at 15,000 rpm for 10 min, and take the supernatant for analysis.

MDCK cell monolayers = assay: Bidirectional transport across MDCK monolayers; assay type: in vitro ADME, canine
Description: as §2, §3, §4

[3] = test system: PC9-LUC spinal cord metastases; assay: Mouse spinal cord metastasis model (PC9-LUC); assay type: in vivo, nude mice; settings: for biofluorescence signal of intracranial and spinal cord tumors: vs control
Description: The BLI signal was measured once a week, and the body weight of the mice was recorded.
For the spinal cord metastasis model, PC9-LUC cells were injected into the brain ventricles of nude mice, and the mice were placed in an SPF environment. […] These mice were then randomly divided into five groups (five in each group) to receive various treatments. After 16 days of modeling, bioluminescence imaging was used to assess the growth and metastasis of PC9-LUC cells every week.

[4] = test system: PC9-LUC brain metastatic tumor; assay: Mouse brain metastasis xenograft (intracranial PC9-LUC); assay type: in vivo, BALB/c nude mice; settings: for growth of intracranial tumors (bioluminescence) / body weight of mice: 10 and 25 mg/kg once daily
Description: The brain metastasis model was established via intracranial injection of tumor cells into 6–8-week-old SPF female BALB/c nude mice. The tumor seeding process, which is an aseptic operation, was carried out on an ultra-clean bench. The tumor cells used in this experiment were PC9-LUC cells, and the concentration of the cell suspension was 1 × 10^8/ml. Pentobarbital sodium at 50 mg/kg body weight was administered via intraperitoneal injection. The top of the mouse skull was cut along the center of the skull from the ears to the eyes. An area of about 1–2 cm of the skull was then wiped repeatedly with a cotton swab to remove the fascia and expose the cranial sutures. Holes were then drilled 1 mm below the coronal suture of the skull and 2–2.5 mm from the sagittal suture while keeping the mouse head level. The cranial drill was inserted vertically and the drill was operated at low speed to avoid brain damage. Each mouse was then placed on the brain stereotaxic device, the tip of the syringe needle was aligned with the hole on the skull, and 3 μl of cell suspension (3 × 10^5 cells) was injected via a needle at a depth of 3 mm from the skull. The needle was maintained for 1–2 min following cell injection and then withdrawn. A cotton swab was used to compress the wound and medical adhesive was used to bond the skin wounds. Mice were then placed on a heating blanket and then returned to the animal room for recovery and ongoing nurture. Bioluminescent (BLI) signals were measured weekly using the IVIS Xenogen Imaging system (FX-PRO, United States) to monitor tumor growth. […] The BLI signal was measured once a week and the body weight of the mice was recorded.

[5] = parameters: method as in Mok et al., 2017; settings: AURA3; ref Mok et al., 2017; cited from earlier work
[6] = Mouse pharmacokinetic study, plasma and brain by LC-MS
Description: as §5, §6, §7, §8

[7] = Bidirectional transport across MDCK monolayers; assay type: in vitro ADME, canine; settings: dog, read-out: efflux ratio (ER)
Description: as §2, §3, §4

[8] = molecular target: EGFR T790M mutant protein (Homo sapiens, UniProt P00533, T790M); assay: biochemical
Description: First, according to the standard procedure, a COOH sensor chip was installed on the Open SPR instrument. The buffer was run at the maximum flow rate and exhaust bubbles after reaching the signal baseline. […] The buffer flow rate was then depressed to 20 µl/min and a sample of 200 µl EDC/NHS (1:1) solution was run for 4 min. Then, the injection instrument of the 200 µl ligand was operated for 4 min. Diluted with activation buffer, Once the ligand-chip interaction was completed, the upper sample mouth was rinsed with buffer and emptied by air. Sample 200 µl Blocking (20 µl/min,4 min) solution, buffer (PBS) rinse the sample ring and empty it by air. The baseline was then observed for 5 min to ensure stability. Finally, different concentrations of analyte were injected separately on the surface of the ligand chip (the concentration is detailed in the experimental results), and the analyte was sampled at 20 µl/min. The binding time of the analyte to the ligand was 240 s and the natural dissociation occurred at 480 s. The 200 µl sample flowed through the chip for 240 s at a constant flow rate of 20 µl/min in each cycle.
The combined compounds can be dissociated from the coating surface by acid and alkali. […] Finally, the kinetic parameters of the binding reactions were calculated and analyzed using Trace Drawer software (Ridgeview Instruments AB, Sweden).

[9] = test system: EGFR 19del mutant lung adenocarcinoma and brain metastases; assay: Clinical case study, EGFR 19del lung adenocarcinoma with brain metastases; assay type: in vivo, human; settings: one patient
Description: Herein, we present details of a clinical case study. In this case, brain metastases were recorded at the beginning of the study, and almonertinib was administered for several weeks to allow magnetic resonance imaging of the brain to observe the progression of the disease. Written informed consent was obtained from the patient. The work has been carried out in accordance with The Code of Ethics of the World Medical Association (Declaration of Helsinki).

[10] = test system: EGFR-mutated NSCLC brain metastases; parameters: method as in Liu et al., 2020; settings: patients, ref Liu et al., 2020; cited from earlier work
[11] = brain metastasis model, 25 mg/kg once daily
[12] = female, BALB/c nude, mouse, brain, po, 25 mg/kg
[13] = female, BALB/c nude, mouse, plasma, po, 25 mg/kg

T2 sequence (P08183 whole entry): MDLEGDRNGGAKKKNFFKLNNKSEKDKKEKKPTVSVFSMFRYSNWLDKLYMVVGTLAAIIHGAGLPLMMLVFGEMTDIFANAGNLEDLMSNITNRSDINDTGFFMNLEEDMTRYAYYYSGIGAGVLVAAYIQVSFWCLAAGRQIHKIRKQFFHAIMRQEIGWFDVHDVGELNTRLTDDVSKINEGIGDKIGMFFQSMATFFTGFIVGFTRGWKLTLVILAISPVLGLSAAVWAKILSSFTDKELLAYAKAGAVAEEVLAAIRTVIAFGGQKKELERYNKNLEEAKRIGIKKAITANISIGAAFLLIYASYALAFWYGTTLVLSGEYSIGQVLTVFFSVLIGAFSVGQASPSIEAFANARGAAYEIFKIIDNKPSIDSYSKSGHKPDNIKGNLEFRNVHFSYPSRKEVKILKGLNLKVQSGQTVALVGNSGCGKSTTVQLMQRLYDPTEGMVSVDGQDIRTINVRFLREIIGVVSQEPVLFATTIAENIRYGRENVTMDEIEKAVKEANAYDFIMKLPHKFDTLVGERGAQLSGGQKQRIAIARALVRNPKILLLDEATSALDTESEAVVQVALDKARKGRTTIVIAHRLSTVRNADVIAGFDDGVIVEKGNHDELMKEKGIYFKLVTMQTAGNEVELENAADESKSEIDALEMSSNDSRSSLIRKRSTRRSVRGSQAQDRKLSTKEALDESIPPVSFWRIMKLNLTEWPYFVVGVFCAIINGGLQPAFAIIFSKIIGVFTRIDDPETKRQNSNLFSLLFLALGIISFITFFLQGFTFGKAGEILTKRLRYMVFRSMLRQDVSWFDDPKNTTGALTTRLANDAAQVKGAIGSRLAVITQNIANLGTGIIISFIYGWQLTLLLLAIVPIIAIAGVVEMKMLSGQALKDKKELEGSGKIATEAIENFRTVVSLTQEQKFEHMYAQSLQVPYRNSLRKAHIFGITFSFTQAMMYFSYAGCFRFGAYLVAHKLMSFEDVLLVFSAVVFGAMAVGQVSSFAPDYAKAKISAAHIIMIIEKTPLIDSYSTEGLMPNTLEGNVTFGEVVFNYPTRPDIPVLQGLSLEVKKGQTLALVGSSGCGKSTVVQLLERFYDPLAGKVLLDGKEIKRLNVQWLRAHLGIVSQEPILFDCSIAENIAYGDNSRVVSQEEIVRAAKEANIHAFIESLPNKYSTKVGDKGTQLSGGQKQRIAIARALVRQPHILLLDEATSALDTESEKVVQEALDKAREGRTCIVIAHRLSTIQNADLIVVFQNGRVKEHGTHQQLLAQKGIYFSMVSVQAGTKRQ
Sequence of EGFR T790M mutant protein (P00533 25-1210 T790M): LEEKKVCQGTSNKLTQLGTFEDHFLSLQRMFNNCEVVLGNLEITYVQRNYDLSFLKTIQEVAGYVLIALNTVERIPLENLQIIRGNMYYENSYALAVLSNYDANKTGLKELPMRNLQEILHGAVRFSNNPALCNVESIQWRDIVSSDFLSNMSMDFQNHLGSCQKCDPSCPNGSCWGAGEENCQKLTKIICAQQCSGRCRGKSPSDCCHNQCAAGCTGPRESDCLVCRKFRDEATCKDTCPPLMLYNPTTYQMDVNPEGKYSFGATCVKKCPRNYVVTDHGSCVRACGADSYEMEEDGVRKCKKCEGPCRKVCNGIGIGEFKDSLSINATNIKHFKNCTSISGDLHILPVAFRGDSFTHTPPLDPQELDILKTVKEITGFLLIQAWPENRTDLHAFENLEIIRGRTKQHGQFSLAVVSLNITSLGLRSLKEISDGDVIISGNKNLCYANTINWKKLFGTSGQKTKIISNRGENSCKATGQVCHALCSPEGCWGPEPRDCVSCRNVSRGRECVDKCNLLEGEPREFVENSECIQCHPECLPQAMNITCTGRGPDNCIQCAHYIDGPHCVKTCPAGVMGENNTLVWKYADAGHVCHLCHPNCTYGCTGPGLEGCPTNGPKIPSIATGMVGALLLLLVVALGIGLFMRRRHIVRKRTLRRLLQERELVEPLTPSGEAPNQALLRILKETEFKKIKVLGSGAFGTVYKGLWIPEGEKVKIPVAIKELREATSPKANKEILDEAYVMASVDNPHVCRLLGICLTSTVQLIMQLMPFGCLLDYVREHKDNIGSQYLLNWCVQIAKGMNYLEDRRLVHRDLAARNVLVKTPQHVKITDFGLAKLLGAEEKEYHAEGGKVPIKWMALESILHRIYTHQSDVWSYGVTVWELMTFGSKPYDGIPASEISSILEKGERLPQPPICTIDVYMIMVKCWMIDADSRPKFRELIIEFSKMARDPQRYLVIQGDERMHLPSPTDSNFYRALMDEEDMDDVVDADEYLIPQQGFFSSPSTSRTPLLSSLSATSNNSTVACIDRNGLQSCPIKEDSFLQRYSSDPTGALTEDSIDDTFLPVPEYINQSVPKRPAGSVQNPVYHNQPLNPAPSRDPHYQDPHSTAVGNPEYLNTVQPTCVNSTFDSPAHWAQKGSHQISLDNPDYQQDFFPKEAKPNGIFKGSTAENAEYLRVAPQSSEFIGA

## C=CC(=O)Nc1cc(Nc2nccc(-c3c[nH]c4ccccc34)n2)c(OC)cc1N(C)CCN(C)C [AZ5104]
[1]
  concentration of active metabolite in the human body: ~10%

## C=CC(=O)Nc1cc(Nc2nccc(-c3cn(C4CC4)c4ccccc34)n2)c(OC)cc1N(C)CCNC [HAS-719]
BCRP; BCRP-MDCK, 1 μM
  efflux ratio (ER): 11.59
BCRP; BCRP-MDCK, 10 μM
  efflux ratio (ER): 5.07
BCRP; BCRP-MDCK, 20 μM
  efflux ratio (ER): 2.49
BCRP
  BCRP transporter substrate assessment: ABCB1 and BCRP transporter substrates
ABCB1; ABCB1-MDCK, 1 μM
  efflux ratio (ER): 29.83
ABCB1; ABCB1-MDCK, 10 μM
  efflux ratio (ER): 12.26
ABCB1; ABCB1-MDCK, 20 μM
  efflux ratio (ER): 5.5
ABCB1
  ABCB1 transporter substrate assessment: ABCB1 and BCRP transporter substrates
[2]
  Tissue/plasma AUC ratio: 0.21
MDCK cell monolayers; 1 μM
  efflux ratio (ER): 2.81
MDCK cell monolayers; 10 μM
  efflux ratio (ER): 1.61
MDCK cell monolayers; 20 μM
  efflux ratio (ER): 1.62

## C=CC(=O)Nc1cc(Nc2nccc(-c3cn(C)c4ccccc34)n2)c(OC)cc1N(C)CCN(C)C [osimertinib]
[3]; high-dose group (25 mg/kg Qd)
  biofluorescence signal of intracranial and spinal cord tumors: significantly reduced
[3]; low-dose group (5 mg/kg Qd)
  biofluorescence signal of intracranial and spinal cord tumors: did not change significantly
[4]
  growth of intracranial tumors (bioluminescence): effectively inhibited the growth of intracranial tumors
[4]; [11]
  skin of mice: appeared to be keratinized
  weight loss: more obvious
[4]; brain metastasis model
  body weight of mice: decreased after administration
[5]
  grade 1 and 2 diarrhea, patients affected: 41%
  grade 1 and 2 rashes, patients affected: 34%

## C=CC(=O)Nc1cc(Nc2nccc(-c3cn(C4CC4)c4ccccc34)n2)c(OC)cc1N(C)CCN(C)C [almonertinib]
BCRP
  BCRP transporter substrate assessment: ABCB1 and BCRP transporter substrates
BCRP; human, BCRP-MDCK, 1 μM, read-out: efflux ratio (ER)
  efflux ratio at 1 μM: 4.62
BCRP; human, BCRP-MDCK, 10 μM, read-out: efflux ratio (ER)
  efflux ratio at 10 μM: 2.51
BCRP; human, BCRP-MDCK, 20 μM, read-out: efflux ratio (ER)
  efflux ratio at 20 μM: 1.53
[3]; 5 mg/kg, spinal cord metastatic mice
  tumor growth / regression: can inhibit tumor growth but cannot cause tumor regression
[3]; high-dose group (25 mg/kg Qd)
  biofluorescence signal of intracranial and spinal cord tumors: significantly reduced
[3]; high-dose group (25 mg/kg)
  proliferation of tumor cells (H&E and Ki-67 staining of spinal cord): significant inhibition in the proliferation of tumor cells
[3]; low-dose group (5 mg/kg Qd)
  biofluorescence signal of intracranial and spinal cord tumors: did not change significantly
[3]; spinal cord metastasis model, vs osimertinib-administered group
  survival time: longer survival time
ABCB1
  ABCB1 transporter substrate assessment: ABCB1 and BCRP transporter substrates
ABCB1; human, MDCK-MDR1, ABCB1-MDCK, 1 μM, read-out: efflux ratio (ER)
  efflux ratio at 1 μM: 5.2
ABCB1; human, MDCK-MDR1, ABCB1-MDCK, 10 μM, read-out: efflux ratio (ER)
  efflux ratio at 10 μM: 2.75
ABCB1; human, MDCK-MDR1, ABCB1-MDCK, 20 μM, read-out: efflux ratio (ER)
  efflux ratio at 20 μM: 1.84
[4]; 25 mg/kg, vs control group
  neurological function (sticky dot test, vertical test): significant improvement in neurological function
[4]
  growth of intracranial tumors (bioluminescence): effectively inhibited the growth of intracranial tumors
[4]; brain metastasis model
  number of proliferative cells (Ki-67, histological analysis of brain tissue): significantly decreased
  body weight of mice: decreased after administration
[4]; brain metastasis model, 10 and 25 mg/kg, 60 days
  overall survival time of mice: longer than that of mice in the osimertinib group
[6]; 24 h after 25 mg/kg oral
  detectability in plasma and brain tissue: could still be detected
[6]; PC9-LUC BM xenograft mice, almonertinib 25 mg/kg oral
  BBB penetration: excellent BBB penetration
[6]; brain, almonertinib 25 mg/kg oral
  tmax: 2 h
[6]; [12]
  AUC(0-t): 30.6 µM·h
  Cmax: 5.36 µM
  MRT last: 6.19 h
[6]; female, BALB/c nude, mouse, brain/plasma, po, 25 mg/kg
  Kp: 1.82
[6]; [13]
  AUC(0-t): 16.9 µM·h
  Cmax: 6.41 µM
  MRT last: 5.42 h
[6]; female, BALB/c nude, mouse, plasma, po, 25 mg/kg, tmax, almonertinib 25 mg/kg oral
  tmax: 0.5 h
[7]; 1 μM
  efflux ratio at 1 μM: 1.1
[7]; 10 μM
  efflux ratio at 10 μM: 1.42
[7]; 20 μM
  efflux ratio at 20 μM: 1.02
[8]
  Kd: 11.1 µM
[9]; 110 mg po qd first-line, after 8 weeks
  intracranial tumor response: partially responded
[9]; 110 mg po qd
  abnormalities during treatment: no other abnormalities

## C#Cc1cccc(Nc2ncnc3cc4c(cc23)OCCOCCOCCO4)c1 [icotinib]
[10]
  median intracranial progression free survival (PFS): 8.4 months
